Reference: patent US7238340B1, “Monoamine, diamide, thiol-containing metal chelating agents” (CIS bio international, priority 1991, dated 2007)

Legend:
[1] = system: thrombus; assay: In vivo imaging of deep vein thrombosis with Tc-99m labeled thrombus targeting peptide, canine model; settings: Tc-99m labeled peptide, i.v., dog, ratio
Description: (§1) Mongrel dogs (25–35 lb., fasted overnight) were sedated with a combination of ketamine and aceprozamine intramuscularly and then anesthetized with sodium pentabarbital intravenously. In each animal, an 18-gauge angiocath was inserted in the distal half of the right femoral vein and a 5 mm or 8 mm Dacron®-entwined stainless steel embolization coil (Cook Co., Bloomington Ind.) was placed in the femoral vein at approximately mid-femur. The catheter was removed, the wound sutured and the placement of the coil documented by X-ray. The animals were then allowed to recover overnight.
(§2) One day following coil placement, each animal was re-anesthetized, intravenous saline drips placed in each foreleg and a urinary bladder catheter inserted to collect urine. The animal was placed supine under a gamma camera equipped with a low-energy, all purpose collimator and photopeaked for Tc-99m. […] The second line was maintained for blood collection.
(§3) Gamma camera imaging was started simultaneously with injection. Anterior images over the heart were acquired as a dynamic study (10 sec image acquisitions) over the first 10 min, and then as static images at 1, 2, 3 and 4h post-injection. Anterior images over the legs were acquired for 500,000 counts or 20 min (whichever is shorter), at approximately 10–20 min, and at approximately 1, 2, 3 and 4h post-injection. Leg images were collected with a lead shield placed over the bladder.
(§4) Following collection of the final image, each animal was deeply anesthetized with pentobarbital. Two blood samples were collected using a heparinized syringe followed by a euthanizing dose of saturated potassium chloride solution administered by intercardiac or bolus intravenous injection. […] The thrombus, coil and coil Dacron fibres were then dissected free of the vessel. The thrombus, saline-washed vessel samples, coil and coil Dacron® fibres were separated, and each sample was placed in a pre-weighed test tube. The samples were weighed and counted in a gamma well counter in the Tc-99m channel, along with known fractions of the injected doses.
(§5) Fresh thrombus weight, percent injected dose (% ID)/g in the thrombus and blood obtained just prior to euthanasia and thrombus/blood and thrombus/muscle ratios were determined. From the computer-stored images, thrombus/background ratios were determined by analysis of the counts/pixel measured in regions-of-interest (ROI) drawn over the thrombus and adjacent muscle.

[2] = as above; settings: mongrel, dog, thrombus, iv, total radioactivity
Description: as §1, §2, §3, §4, §5

Compound: CC(=O)NCSC[C@H](NC(=O)CNC(=O)CNC(=O)[C@@H]1CSCC(=O)N[C@H](Cc2ccc(O)cc2)C(=O)N[C@@H](Cc2ccc(C(=N)N)cc2)C(=O)NCC(=O)N[C@@H](CC(=O)O)C(=O)N1)C(=O)NCC(=O)N[C@@H](CSCNC(C)=O)C(=O)NCC(=O)NCC(=O)N[C@@H](CSCC(=O)NCCCC[C@H](NC(=O)CSC[C@H](NC(=O)CNC(=O)CNC(=O)[C@H](CSCNC(C)=O)NC(=O)CNC(=O)[C@H](CSCNC(C)=O)NC(=O)CNC(=O)CNC(=O)[C@@H]1CSCC(=O)N[C@H](Cc2ccc(O)cc2)C(=O)N[C@@H](Cc2ccc(C(=N)N)cc2)C(=O)NCC(=O)N[C@@H](CC(=O)O)C(=O)N1)C(N)=O)C(=O)NCCCC[C@H](N)C(=O)NCC(=O)N[C@@H](CS)C(N)=O)C(N)=O [Peptide P747, (CH2CO.YD.Amp.GDCGGCAcmGCAcmGGC.amide)2(CH2CO)2K(ε-K)GC.amide]
- Thrombus/Blood [1]: 15
- Thrombus/Muscle [1]: 70
- tissue uptake at 4 h [2]: 0.043 %ID/g
